These results are taken from a melting point compilation (Tetko et al.; mined from patent text by program, amines drawn as free bases though some values may be those of a salt).

SMILES strings stand for the structures. A value given as a limit tells only on which side of the number the result lay.

With `CCOC(=O)N(C(C)=O)c1ccc(OCc2nc3ccccc3s2)cc1`, the melting point lay in the range of 155 to 160 °C. Consider `CC(=O)c1ccc(OCCCN2CCC(c3noc4cc(F)ccc34)CC2)c(CC(N)=O)c1`, for which the melting point was in the range of 108 to 110 °C. The result for `O=[N+]([O-])c1c(Cl)nc(C2CC2)nc1Cl` reads 50 to 52 °C; that for `N=C(Nc1ccccc1-c1ccccc1)N1CCC(=NO)CC1`, 175 to 176 °C; that for `C[N+]1([O-])CC(c2ccccn2)C(=O)c2cc(Cl)ccc21` (configuration not stated), 135 to 137 °C. Regarding `OCCN1CCN(c2ccc3nc(-c4ccc(Cl)s4)c(-c4ccncc4)n3n2)CC1`, the melting point lay in the range of 216 to 218 °C. `CC(C(=O)NC(=O)OCC(F)(F)F)(c1ccccc1)c1ccccc1` gave a melting point of 143 to 145 °C. As for `CC(C)(C)OC(=O)COc1ccc([N+](=O)[O-])cc1F`, the figure is 62 to 64 °C; as for `COc1ccc(C(=O)Nc2c(Cl)cncc2Cl)c2c1oc1ccc(NC(C)=O)cc12`, 252 °C. As for `Cc1cc(C2CCN(S(=O)(=O)C(C)(C)C(=O)NO)CC2)ccc1-c1cccc(OC[C@@H](O)CO)c1`, the figure is 152 to 154 °C; as for `CCCc1nc(OC)c(N(C)C(=O)N2CCN(c3cc(OC)cc(OC)c3)CC2)cc1C`, 106 to 107 °C. As for `ClC=C(Cl)n1c2ccccc2c2ccccc21`, the figure is 51 to 53 °C. As for `CCN1C(=O)C(C)(C)C(=O)N(C)c2cc(CN(CCn3ccc4oc(C)cc4c3=O)Cc3cccnc3C#N)ccc21`, the melting point was in the range of 114 to 118 °C. `Nc1ccc(C(=O)Nc2ccccc2C(c2ccc(O)cc2)c2ccc(O)cc2)cc1` displayed a melting point of 158 to 161 °C. In turn, `O=C(O)C=CC(=S)c1ccc(-c2ccccc2)cc1` displayed a melting point of 157 to 159 °C. `CCN1CCN(c2nc(C)c(C(=O)NCc3cccnc3)s2)C1=O`: the melting point fell in the range of 163 to 164 °C. As for `Nc1ccc(Oc2ccc(C(=O)c3ccc(C#Cc4ccccc4)cc3)cc2)cc1`, the melting point fell in the range of 151 to 153 °C. The result for `CC(=O)C1=CCC2C3CCC4=CC(=O)CCC4(C)C3=CCC12C` (configuration not stated) reads 200 to 201 °C; that for `CCCCc1nc(Cl)c(C(N)=O)n1Cc1ccc2oc(-c3ccccc3-c3nnn[nH]3)c(Br)c2c1`, 131 to 133 °C; that for `OCc1csc(=S)n1-c1ccc(F)c(F)c1F`, 113 to 116 °C. In the case of `O=[N+]([O-])c1cc(Cl)ccc1/C=C/c1ccc(Cl)cc1[N+](=O)[O-]`, the melting point lay within 247 to 248 °C. The result for `O=[N+]([O-])c1ccc(SCl)c(C(Cl)(Cl)Cl)c1` reads 56 to 57 °C; that for `Nc1sc2c(c1C(=O)c1ccc(Cl)cc1)CCSC2`, 142 to 146 °C; that for `CCCCNc1nc2cccc(C(=O)OC)c2n1Cc1ccccc1-c1ccccc1-c1nnn[nH]1`, 216 to 218 °C. The result for `CN(C)CCNC(=O)c1cccc(-c2ccnc(C(=O)N(O)Cc3ccccc3)c2)c1` reads 65 to 70 °C. On to `CC1COc2c(OC3CCN(C)CC3)c(F)cc3c(=O)c(C(=O)O)cn1c23` (configuration not stated), for which the melting point was 234 to 238 °C. The result for `CNC(=O)Nc1cccc(C(=S)NC(C)C)c1` reads 175 to 178 °C; that for `CCOC(=O)c1cnc2c(c(C)nn2CC)c1O`, 91 to 93 °C; that for `CCC1=NNC(C)=C(C(=O)OC2CCCC2)C1c1cccc([N+](=O)[O-])c1` (configuration not stated), 110 °C.

In turn, `COc1cccc(Nc2ncc(C(=O)O)c(=O)[nH]2)c1` yielded a melting point of 247 to 249 °C.

As to `O=P(Oc1ccc(Oc2ccccc2)cc1)(Oc1ccc(Oc2ccccc2)cc1)c1ccccc1`, the melting point lay within 92 to 93 °C.

For the molecule `O=C1[C@H]2CCC[C@H]2N(C(=O)CBr)c2ccccc2N1CCCc1ccccc1` (relative stereo), the melting point fell in the range of 130 to 132 °C. The result for `N#Cc1cnc2c(Br)cccc2c1O` reads greater than 260 °C; that for `CC(=O)OCCn1ccc(=O)c(OCc2ccccc2)c1C(OC(C)=O)c1cccc(F)c1` (configuration not stated), 148 to 149 °C; that for `C#CCc1c(C)nc2c(OCc3c(C)cccc3N)cccn12`, 144 to 146 °C. As for `Cc1cccc(NC(=O)N2CCN(CCc3ccc(-c4cccc(N)n4)cc3)CC2)c1`, the figure is 88 to 94 °C; as for `CCCc1c(OCCCOc2ccc(Cl)c(Cl)c2)ccc2c1OC(CCC(=O)O)(CCC(=O)O)CC2=O`, 136 to 137 °C; as for `C/C(=C\c1ccc(OC(C)C)cc1Oc1ncc(C(F)(F)F)cc1Cl)C(=O)NS(=O)(=O)NCCOC(C)C`, 138 °C. Molecule `O=C(c1ccc(O)cc1)c1sc2cc(O)ccc2c1-c1ccccc1` yielded a melting point of 198 to 200 °C. The molecule `O=C(O)c1cccn2c(=O)c3c(nc12)CCC3` showed a melting point of 189 to 193 °C. In turn, `CN1C[C@H](c2cnccn2)OC1=O` gave a melting point of 114 °C. In turn, `Cn1cc(C(=O)NCc2ccc(F)cc2)c(=O)c2cc(CN3CCOCC3)sc21` had a melting point of 214 to 216 °C. The result for `CN(C)Cc1ccc(CSCCNC(=C[N+](=O)[O-])NCC(O)c2ccccc2)o1` (configuration not stated) reads 115 to 116 °C; that for `CCn1ncc2c(Cl)c3cccc(OC)c3nc21`, 168 to 170 °C; that for `COc1cc(C)cc(C2=NC(C)(C)CO2)c1N`, 135 to 138 °C.

As for `CC(=O)NCCc1ccc(CN2CCN(c3ccc(F)cc3)CC2)cc1`, the melting point was in the range of 121 to 123 °C.

The molecule `NC1=NC(c2ccc(OC(F)(F)F)cc2)(c2cccc(-c3cccnc3F)c2)C2=NCCCCCN12` (configuration not stated) registered a melting point of 95 to 99 °C. Consider `O=C(O)c1cc(S(=O)(=O)O)c2cccnc2c1O`, for which the melting point was in the range of 289 to 291 °C. The result for `Cc1cc(C(=O)NC2=NCCC2(c2ccccc2)c2ccccc2)[nH]n1` reads 213 to 215 °C. In turn, `COc1cc(N[C@H]2CC[C@H](NC3CCCC3)CC2)c(Cl)cc1C(N)=O` had a melting point of 169 to 171 °C. Molecule `O=C1c2ccc(Cl)cc2C(O)N1CCBr` (configuration not stated) had a melting point of 164 to 168 °C. The result for `CC(C)(NC(=O)C(CS)Cc1ccccc1)C(=O)O` (configuration not stated) reads 175 to 176 °C; that for `CCCC1CCC(C2CCC3(CC2)C(=O)C2(CCC(C4CCC(CCC)CC4)CC2)C3=O)CC1` (configuration not stated), 290 °C.

On to `CCc1cccc(C)c1CNc1cc(C(=O)O)cc2c1nc(COC)n2C`, for which the melting point was 275 to 278 °C. `Brc1cnn2c(-c3cccnc3)ccnc12` displayed a melting point of 243 to 244 °C.

With `CC(C)COC(=O)N[C@@H](Cc1ccccc1)C(=O)CSCc1ccco1`, the melting point was 58 to 59 °C.

As for `COc1cccc(NC(=O)N[C@H]2C[C@H](C(=O)O)Nc3cc(Cl)cc(Cl)c32)c1` (relative stereo), the melting point fell in the range of 181 to 183 °C. For `COc1cc(CC(=O)NCCCc2ccc(C)c(C)c2)ccc1OCCN(CCO)CCO`, the melting point lay in the range of 54 to 58 °C. Take `CCCCOCCOc1ccc(-c2ccc(N3CCCCC3C)c(C=CC(=O)O)c2)cc1` (configuration not stated): the melting point fell in the range of 106 to 108 °C. The result for `COC(CN(C(=O)C(C)C)C(C(=O)O)c1ccccc1)OC` (configuration not stated) reads 147 to 149 °C. The result for `CC1(C)CC(=C(c2ccc(O)cc2)c2ccc(F)cc2)CC(C)(C)C1` reads 134 to 135 °C. Turning to `Cc1cc(N)cc(C)c1Oc1ccc(O)c(C(=O)c2ccc(F)cc2)c1`, the melting point was 198 to 202 °C.

Broadly, the melting point is the temperature of the solid-liquid transition.
